# Results taken from patent US20260200943A1, “COMPOUNDS FOR TREATING CANCER” (Genesis Therapeutics, Inc., priority 2022, published 2026).
# pKi: −log10 of the molar value. Where two headings read alike, the source gives them in different places.
# Experiments:
# [1] = the molecule shown is the open-chain precursor, other bond
# CDK2/CyclinA2 [2] = biological target: T1, CDK2/CyclinA2 (Homo sapiens, UniProt P24941); test: CDK2/Cyclin A2 Mobility Shift Assay (Caliper, Table B); type: biochemical; details: for pKi: Caliper mobility shift, 10xKm, read-out: CDK2/CCNA2 Caliper 10xKm Ki: Average Ki
# T1 construct: Wild-type, full length CDK2 in complex with wildtype, full length CyclinA2: Carna Cat #04-103; purchased Carna 04-103
# Description: 10 nL of 2000× compound in 100% DMSO is added to a 384-well polypropylene assay plate. 15 μL of 1.3×CDK2/A2 and 1.3× fluorescent substrate (Wild-type, full length CDK2 in complex with wildtype, full length CyclinA2: Carna Cat #04-103 and FL-Peptide 18: PerkinElmer Cat #760362) diluted in kinase buffer (50 mM Hepes, 0.01% Brij-35, 10 mM MgCl2, 1 mM EGTA, 0.05% BSA, and 2 mM DTT) is added to the plates on top of the compound, mixed, and pre-incubated for 30 minutes at room temperature. The fluorescently labeled peptide substrate is phosphorylated by CDK2/A2 upon ATP hydrolysis. Following the incubation, 5 μL of 4×ATP diluted in kinase buffer is added to the plate to initiate the reaction. Following the 30-minute incubation, the reaction is stopped by adding 75 μL of stopping buffer containing 0.5 M EDTA.
# (§1) The assay plate is then read on a Lab Chip EZ Reader which separates the fluorescently labeled substrate and product peptides through a mobility difference. The phosphorylation of the substrate imparts a negative charge, which allows differences in separation as both are pulled through the microfluidic chip. The ratio of substrate and product values are used to generate percent conversion. These raw percent conversion values are normalized to calculate percent inhibition, which are fit to a four-parameter logistic curve and IC50 values are calculated. IC50 values are converted to Ki through using substrate and Km^app values, and the Cheng-Prusoff equation.
# CDK1/CyclinB1 [3] = biological target: T2, CDK1/CyclinB1 (Homo sapiens, UniProt P06493); test: CDK1/Cyclin B1 Mobility Shift Assay (Caliper, Table B); type: biochemical; details: read-out: CDK1/CCNB1 Caliper Ki: Average Ki
# T2 construct: Wild-type, full length CDK1 in complex with wildtype, full length CyclinB1: Carna Cat #04-102; purchased Carna 04-102
# T2 sequence (P06493 whole entry): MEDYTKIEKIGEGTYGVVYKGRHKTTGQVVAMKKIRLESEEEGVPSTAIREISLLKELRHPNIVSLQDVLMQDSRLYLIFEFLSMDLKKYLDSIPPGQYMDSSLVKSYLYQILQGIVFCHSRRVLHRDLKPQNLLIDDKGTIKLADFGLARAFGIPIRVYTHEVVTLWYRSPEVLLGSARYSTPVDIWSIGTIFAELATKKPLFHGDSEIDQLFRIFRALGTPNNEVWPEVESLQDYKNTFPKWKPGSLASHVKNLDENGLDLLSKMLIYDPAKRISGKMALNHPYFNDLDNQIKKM
# T2 sequence (P14635 whole entry partner): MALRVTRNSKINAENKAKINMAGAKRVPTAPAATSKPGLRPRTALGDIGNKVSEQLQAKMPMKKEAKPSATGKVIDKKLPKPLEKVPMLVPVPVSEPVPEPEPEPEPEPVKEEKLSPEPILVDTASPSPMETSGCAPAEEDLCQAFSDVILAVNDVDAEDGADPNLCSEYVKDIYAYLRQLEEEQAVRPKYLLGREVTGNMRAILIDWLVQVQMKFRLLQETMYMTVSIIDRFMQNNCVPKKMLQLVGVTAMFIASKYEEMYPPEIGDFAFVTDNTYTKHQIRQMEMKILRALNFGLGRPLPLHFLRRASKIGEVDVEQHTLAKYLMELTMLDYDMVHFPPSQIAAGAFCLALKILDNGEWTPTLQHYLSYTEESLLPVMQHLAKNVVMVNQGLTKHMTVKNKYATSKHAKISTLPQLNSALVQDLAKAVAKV
# Description: 10 nL of 2000× compound in 100% DMSO is added to a 384-well polypropylene assay plate. 15 μL of 1.3×CDK1/B1 and 1.3× fluorescent substrate (Wild-type, full length CDK1 in complex with wildtype, full length CyclinB1: Carna Cat #04-102 and FL-Peptide 29: PerkinElmer Cat #760429) diluted in kinase buffer (50 mM Hepes, 0.01% Brij-35, 10 mM MgCl2, 1 mM EGTA, 0.05% BSA, and 2 mM DTT) is added to the plates on top of the compound, mixed, and pre-incubated for 30 minutes at room temperature. The fluorescently labeled peptide substrate is phosphorylated by CDK1/B1 upon ATP hydrolysis. Following the incubation, 5 μL of 4×ATP diluted in kinase buffer is added to the plate to initiate the reaction. Following the 30-minute incubation, the reaction is stopped by adding 75 μL of stopping buffer containing 0.5 M EDTA.
# as §1, with “Ki” for “Ki through”, “substrate, Kmapp” for “substrate and Km^app”
# CDK9/CyclinT1 [4] = biological target: T3, CDK9/CyclinT1 (Homo sapiens, UniProt P50750); test: CDK9/CyclinT1 Mobility Shift Assay (Caliper, Table B); type: biochemical; parameters: Wild-type, full length CDK9 in complex with wildtype, CyclinT1 (1-259): Biortus Cat #BP480/792/691; purchased Biortus BP480/792/691; details: read-out: CDK9/Cyclin T1 Caliper Ki: Average Ki
# Description: 10 nL of 2000× compound in 100% DMSO is added to a 384-well polypropylene assay plate. 15 μL of 1.3×CDK9/T1 and 1.3× fluorescent substrate (Wild-type, full length CDK9 in complex with wildtype, CyclinT1 (1-259): Biortus Cat #BP480/792/691 and FL-Peptide 34: PerkinElmer Cat #760643) diluted in kinase buffer (50 mM Hepes, 0.01% Brij-35, 10 mM MgCl2, 1 mM EGTA, 0.05% BSA, and 2 mM DTT) is added to the plates on top of the compound, mixed, and pre-incubated for 30 minutes at room temperature. The fluorescently labeled peptide substrate is phosphorylated by CDK9/T1 upon ATP hydrolysis. Following the incubation, 5 μL of 4×ATP diluted in kinase buffer is added to the plate to initiate the reaction. Following the 30-minute incubation, the reaction is stopped by adding 75 μL of stopping buffer containing 0.5 M EDTA.
# as §1, with “Ki” for “Ki through”, “substrate, Kmapp” for “substrate and Km^app”
# Target sequence in this assay (P50750 whole entry): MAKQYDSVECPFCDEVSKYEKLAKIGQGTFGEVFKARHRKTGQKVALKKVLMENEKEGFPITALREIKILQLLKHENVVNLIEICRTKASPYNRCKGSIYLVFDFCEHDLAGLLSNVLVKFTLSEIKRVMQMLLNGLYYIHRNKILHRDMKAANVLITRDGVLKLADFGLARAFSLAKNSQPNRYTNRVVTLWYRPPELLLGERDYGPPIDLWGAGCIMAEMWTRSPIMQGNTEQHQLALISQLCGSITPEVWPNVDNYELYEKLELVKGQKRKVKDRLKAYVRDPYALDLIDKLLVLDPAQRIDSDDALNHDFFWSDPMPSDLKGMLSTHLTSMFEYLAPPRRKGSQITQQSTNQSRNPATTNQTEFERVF
# Target sequence in this assay (O60563 1-259 partner limits assumed): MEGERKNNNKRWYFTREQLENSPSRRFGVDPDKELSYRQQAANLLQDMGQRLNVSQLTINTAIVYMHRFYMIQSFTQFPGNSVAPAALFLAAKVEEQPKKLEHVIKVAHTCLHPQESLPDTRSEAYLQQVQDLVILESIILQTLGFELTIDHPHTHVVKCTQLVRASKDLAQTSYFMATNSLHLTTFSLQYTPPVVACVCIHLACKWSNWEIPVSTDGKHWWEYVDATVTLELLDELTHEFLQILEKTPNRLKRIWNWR
# CDK2/CyclinA2 [5] = biological target: T1, CDK2/CyclinA2; test: CDK2/CyclinA2 ChEF Assay (Table A); type: biochemical
# Description: 500 nL of 50× compound in 100% DMSO is added to a 384-well low volume, white assay plate. 19.5 μL of 1.3×CDK2/CyclinA2 (Wild-type, full length CDK2 in complex with wildtype, full length CyclinA2: Carna Cat #04-103 diluted in assay buffer (50 mM Hepes, 0.01% Brij-35, 10 mM MgCl2, 0.5 mM EGTA, 1% Glycerol, and 1.2 mM DTT) is added to the plates on top of the compound and pre-incubated for 30 minutes at room temperature. Following the incubation, 5 μL of 5×Sox-chromophore (CSox) labeled peptide substrate (AQT0255, AssayQuant) & ATP diluted in assay buffer is added to the plate to initiate the reaction. The assay is incubated at room temperature for 45 min after initiation. The CSox peptide substrate is phosphorylated by CDK2/A2 upon ATP hydrolysis.
# (§2) The fluorescent intensity measurement of the assay plate for all assays described above is read on a microplate reader once the assay is initiated and again at the completion of the assay. Phosphorylation of the CSox-based peptide substrate sensor results in an immediate increase in fluorescence. These raw fluorescence intensity values are normalized to calculate percent inhibition, which are fit to a four-parameter logistic curve and IC50 values are calculated. IC50 values are converted to Ki using substrate, KM^app values, and the Cheng-Prusoff equation.
# CDK1/CyclinB1 [6] = biological target: T2, CDK1/CyclinB1; test: CDK1/CyclinB1 ChEF Assay (Table A); type: biochemical; details: read-out: CDK1/CCNB1 ChEF Ki: Average Ki;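 further: Ki reported in nM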
# Description: 500 nL of 50× compound in 100% DMSO is added to a 384-well low volume, white assay plate. 19.5 μL of 1.3×CDK1/CyclinB1 (Wild-type, full length CDK1 in complex with wildtype, full length CyclinB1: Carna Cat #04-102) diluted in assay buffer (50 mM Hepes, 0.01% Brij-35, 10 mM MgCl2, 0.5 mM EGTA, 1% Glycerol, and 1.2 mM DTT) is added to the plates on top of the compound and pre-incubated for 30 minutes at room temperature. Following the incubation, 5 μL of 5×Sox-chromophore (CSox) labeled peptide substrate (AQT0297, AssayQuant) & ATP diluted in assay buffer is added to the plate to initiate the reaction. The assay is incubated at room temperature for 30 min after initiation. The CSox peptide substrate is phosphorylated by CDK1/B1 upon ATP hydrolysis.
# as §2
# CDK9/CyclinT1 [7] = biological target: T3, CDK9/CyclinT1; test: CDK9/CyclinT1 ChEF Assay (Table A); type: biochemical; parameters: Wild-type, full length CDK9 in complex with wildtype, full length CyclinT1: Invitrogen Cat #PV4131; purchased Invitrogen PV4131; details: 10xKm, read-out: CDK9/CCNT1 ChEF 10xKm Ki: Average Ki
# Description: 500 nL of 50× compound in 100% DMSO is added to a 384-well low volume, white assay plate. 19.5 μL of 1.3×CDK9/CyclinT1 (Wild-type, full length CDK9 in complex with wildtype, full length CyclinT1: Invitrogen Cat #PV4131) diluted in assay buffer (50 mM Hepes, 0.01% Brij-35, 10 mM MgCl2, 0.5 mM EGTA, 1% Glycerol, and 1.2 mM DTT) is added to the plates on top of the compound and pre-incubated for 30 minutes at room temperature. Following the incubation, 5 μL of 5×Sox-chromophore (CSox) labeled peptide substrate (AQT0449, AssayQuant) & ATP diluted in assay buffer is added to the plate to initiate the reaction. The assay is incubated at room temperature for 120 min after initiation. The CSox peptide substrate is phosphorylated by CDK9/T1 upon ATP hydrolysis.
# as §2
# Target sequence in this assay (P50750 whole entry): as the sequence (P50750 whole entry) above
# Target sequence in this assay (O60563 whole entry partner): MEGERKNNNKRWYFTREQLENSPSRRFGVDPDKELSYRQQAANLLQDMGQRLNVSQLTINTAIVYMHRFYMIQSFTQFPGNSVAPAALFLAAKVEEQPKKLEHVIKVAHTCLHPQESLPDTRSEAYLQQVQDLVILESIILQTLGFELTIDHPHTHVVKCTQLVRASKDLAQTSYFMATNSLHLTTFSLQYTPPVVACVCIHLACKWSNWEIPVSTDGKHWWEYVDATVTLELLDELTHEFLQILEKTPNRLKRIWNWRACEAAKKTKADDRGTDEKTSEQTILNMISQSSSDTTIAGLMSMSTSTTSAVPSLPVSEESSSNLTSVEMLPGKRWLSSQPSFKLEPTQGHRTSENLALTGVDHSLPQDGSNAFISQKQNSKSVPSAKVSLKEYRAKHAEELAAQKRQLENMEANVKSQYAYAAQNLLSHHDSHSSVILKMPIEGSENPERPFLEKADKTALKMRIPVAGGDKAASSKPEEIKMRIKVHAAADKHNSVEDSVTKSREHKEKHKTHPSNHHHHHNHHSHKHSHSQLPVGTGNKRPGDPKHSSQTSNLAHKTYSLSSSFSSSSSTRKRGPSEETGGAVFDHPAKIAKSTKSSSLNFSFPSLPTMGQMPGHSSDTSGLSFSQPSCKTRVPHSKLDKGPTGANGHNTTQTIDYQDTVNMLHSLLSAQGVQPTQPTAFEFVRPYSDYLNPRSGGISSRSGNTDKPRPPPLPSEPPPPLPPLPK
pKi (CDK2/CyclinA2 [2]),CDK2/CCNA2 Caliper 10xKm Ki: CDK2/A2 Selectivity over CDK1/B1 (CDK2/CyclinA2 [2]),CDK2/CCNA2 Caliper 10xKm Ki: CDK2/A2 Selectivity over CDK9 (CDK2/CyclinA2 [2]),pKi (CDK1/CyclinB1 [3]),Compound,also measured
,,,,NS(=O)(=O)c1ccc2cc1NCCCCCNC(=O)OC1CCC(C1)c1cnc(nc1)N2 (stereo not shown),"ring closure, yield of all isomers (from CC(C)(C)OC(=O)NCCCCCNc1cc(Nc2ncc(C3CCC(OC(=O)Oc4ccc([N+](=O)[O-])cc4)C3)cn2)ccc1S(=O)(=O)NC(=O)OC(C)(C)C, other bond, DIEA, DMF, 75.0 mM, 50.0 °C, 3.0 h, 2 steps): 39.5%"
,,,,CC(C)(C)OC(=O)NCCOCCNS(=O)(=O)c1ccc(Nc2cc([C@H]3CC[C@@H](OC(=O)Oc4ccc([N+](=O)[O-])cc4)C3)n(C(C)(C)C)n2)c(F)c1,"ring closure, isolated yield ([1]; 21-membered ring, TFA, then DIPEA, DCE, 5.25 mM, 25.0 °C, 2 steps): 62.3%"
,,,,NCCCCCOc1cc(Nc2ncc(C3CCC(OC(=O)Oc4ccc([N+](=O)[O-])cc4)C3)cn2)ccc1S(N)(=O)=O (stereo not shown),"ring closure, isolated yield ([1]; 20-membered ring, DIEA, DMF, 41.5 mM, 50.0 °C): 11.1%"
≤ 7.00,B (5≤B<10),B (5≤B<10),≤ 7.00,O=C1NCCCCCOc2cccc(n2)Nc2ncc(cn2)[C@@H]2CC[C@@H](C2)O1 [Compound 113],
≤ 7.00,B (5≤B<10),C (C<5),≤ 7.00,O=C1NCCCCCCNS(=O)(=O)c2ccc(cc2)Nc2ncc(cn2)[C@@H]2CC[C@@H](C2)O1 [Compound 115],
7.00 to 7.60,C (C<5),B (5≤B<10),≤ 7.00,O=C1NCCCCCCCOc2cccc(n2)Nc2ncc(cn2)[C@@H]2CC[C@@H](C2)O1 [Compound 111],pKi (CDK9/CyclinT1 [4]): ≤ 7.00
,,,,CC(C)(C)n1nc2cc1[C@H]1CC[C@H](C1)OC(=O)NCCCCCCNS(=O)(=O)C1CCC(CC1)N2,"ring closure, yield of all isomers (from CC(C)(C)OC(=O)NCCCCCCNS(=O)(=O)C1CCC(Nc2cc([C@H]3CC[C@@H](OC(=O)Oc4ccc([N+](=O)[O-])cc4)C3)n(C(C)(C)C)n2)CC1, other bond, DIPEA, DCE, 4.26 mM, 25.0 °C, 18.0 h, 2 steps): 50%"
,,,,"O=C1NCCCCn2cc(cn2)S(=O)(=O)N2CCC(CC2)Nc2cc([nH]n2)[C@H]2CC[C@H](C2)O1 [Compound 94, (11S,13R,24Z,64E)-21H,61H-13-oxa-5-thia-3,11-diaza-4(4,1)-piperidina-2(5,3),6(4,1)-dipyrazola-1(1,3)-cyclopentanacyclotridecaphan-12-one 5,5-dioxide]","pKi (CDK9/CyclinT1 [4]): 7.00 to 7.60; pKi (CDK2/CyclinA2 [5]; 10xKm, read-out: CDK2/CCNA2 ChEF 10xKm Ki: Average Ki): 7.00 to 7.60; CDK2/CCNA2 ChEF 10xKm Ki: CDK2/A2 Selectivity over CDK9/T1 (CDK2/CyclinA2 [5]; selectivity over CDK9/T1): A (A>10); pKi (CDK1/CyclinB1 [6]): ≤ 7.00; pKi (CDK9/CyclinT1 [7]): 7.60 to 9.00"
7.00 to 7.60,B (5≤B<10),B (5≤B<10),≤ 7.00,O=C1NCCCCOc2cccc(n2)Nc2ncc(cn2)[C@@H]2CC[C@@H](C2)O1 [Compound 114],
7.00 to 7.60,B (5≤B<10),B (5≤B<10),≤ 7.00,O=C1NCCCCCCOc2cccc(n2)Nc2ncc(cn2)[C@@H]2CC[C@@H](C2)O1 [Compound 112],pKi (CDK9/CyclinT1 [4]): ≤ 7.00
,,,,NS(=O)(=O)c1ccc2cc1OCCCCCNC(=O)OC1CCC(C1)c1cnc(nc1)N2 (stereo not shown),"ring closure, yield of all isomers (from NCCCCCOc1cc(Nc2ncc(C3CCC(OC(=O)Oc4ccc([N+](=O)[O-])cc4)C3)cn2)ccc1S(N)(=O)=O, other bond, DIEA, DMF, 41.5 mM, 50.0 °C, 2.0 h): 11.1%"
,,,,Cn1ncc2c1C(=O)NCCCCCOc1nc(ncc1Br)NC1CCN(CC1)S2(=O)=O,"ring closure, yield of all isomers (from Cn1ncc(S(=O)(=O)N2CCC(N)CC2)c1C(=O)NCCCCCOc1nc(Cl)ncc1Br, snar bond, K2CO3, DMSO, 6.02 mM, 110.0 °C, 2.0 h): 33%"
,,,,CC(C)(C)n1nc2cc1[C@H]1CC[C@H](C1)OC(=O)NCCOCCNS(=O)(=O)c1ccc(c(F)c1)N2,"ring closure, yield of all isomers (from CC(C)(C)OC(=O)NCCOCCNS(=O)(=O)c1ccc(Nc2cc([C@H]3CC[C@@H](OC(=O)Oc4ccc([N+](=O)[O-])cc4)C3)n(C(C)(C)C)n2)c(F)c1, other bond, DIPEA, DCE, 5.25 mM, 25.0 °C, 18.0 h, 2 steps): 62.3%"
